US8710224B2, “Heterocyclic compounds as CCR2B antagonists” (AstraZeneca AB, priority 2004, dated 2014)

What follows are compounds tested against T1, recombinant human CCR5 receptor (Homo sapiens, UniProt P51681) (assay: Radioligand binding assay for inhibition of the binding of MIP-1α). Settings: displacement of 0.1 nM iodinated MIP-1α; membranes of Chinese hamster ovary cells expressing CCR5.
T1 construct: expressed in transfected cells; host or cells: Chinese hamster ovary (CHO) cells; membranes
T1 sequence (P51681 whole entry): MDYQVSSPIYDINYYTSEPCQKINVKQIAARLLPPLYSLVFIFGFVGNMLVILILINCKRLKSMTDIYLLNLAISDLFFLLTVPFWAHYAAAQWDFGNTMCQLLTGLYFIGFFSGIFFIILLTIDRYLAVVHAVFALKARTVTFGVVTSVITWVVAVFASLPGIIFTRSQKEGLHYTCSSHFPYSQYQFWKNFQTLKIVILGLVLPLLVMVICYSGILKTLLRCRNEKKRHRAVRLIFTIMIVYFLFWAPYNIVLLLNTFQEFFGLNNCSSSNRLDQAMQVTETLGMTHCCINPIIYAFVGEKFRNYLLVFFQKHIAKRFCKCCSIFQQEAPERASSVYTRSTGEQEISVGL
In short: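 Membranes from CHO cells expressing recombinant human CCR5 were incubated with 0.1 nM iodinated MIP-1α, scintillation proximity beads and compound at various concentrations. Bound radioligand was measured by scintillation counting.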

Row | IC50 [µM] | SMILES
1 | < 10 | C[C@@H](CC(C)(C)O)N1CCO[C@@H](CN2CCN(C(=O)Nc3ccc(F)c(Cl)c3)CC2)C1 [Example 235, N-(3-chloro-4-fluorophenyl)-4-({(2S)-4-[(1S)-3-hydroxy-1,3-dimethylbutyl]morpholin-2-yl}methyl)piperazine-1-carboxamide]
2 | < 10 | O=C(Nc1ccccc1)N1CCN(C[C@@H]2CCCN(CCCc3ccccc3)C2)CC1 [Example 245, N-phenyl-4-[[(3R)-1-(3-phenylpropyl)-3-piperidyl]methyl]piperazine-1-carboxamide]
3 | < 10 | COc1ccc(CN2CCC[C@@H](CN3CCN(C(=O)Nc4ccccc4)CC3)C2)cn1 [Example 247, 4-({(3R)-1-[(6-methoxypyridin-3-yl)methyl]piperidin-3-yl}methyl)-N-phenyl piperazine-1-carboxamide]
4 | < 10 | O=C(Nc1ccccc1)N1CCN(C[C@@H]2CCCN(CCc3ccc(F)cc3)C2)CC1 [Example 248, 4-[[(3R)-1-[2-(4-fluorophenyl)ethyl]-3-piperidyl]methyl]-N-phenyl-piperazine-1-carboxamide]
5 | < 10 | O=C(Nc1ccccc1)N1CCN(C[C@@H]2CCCN(CCc3ccc(Cl)cc3)C2)CC1 [Example 249, 4-[[(3R)-1-[2-(4-chlorophenyl)ethyl]-3-piperidyl]methyl]-N-phenyl-piperazine-1-carboxamide]
6 | < 10 | COc1ccc(CCN2CCC[C@@H](CN3CCN(C(=O)Nc4ccccc4)CC3)C2)cc1 [Example 250, 4-[[(3R)-1-[2-(4-methoxyphenyl)ethyl]-3-piperidyl]methyl]-N-phenyl-piperazine-1-carboxamide]
7 | < 10 | O=C(Nc1ccccc1)N1CCN(C[C@@H]2CCCN(CCc3ccc(F)cc3Cl)C2)CC1 [Example 251, 4-[[(3R)-1-[2-(2-chloro-4-fluoro-phenyl)ethyl]-3-piperidyl]methyl]-N-phenyl-piperazine-1-carboxamide]
8 | < 10 | O=C(Nc1ccccc1)N1CCN(C[C@@H]2CCCN(CCc3c(Cl)cccc3Cl)C2)CC1 [Example 252, 4-[[(3R)-1-[2-(2,6-dichlorophenyl)ethyl]-3-piperidyl]methyl]-N-phenyl-piperazine-1-carboxamide]
9 | < 10 | O=C(Nc1ccccc1)N1CCN(C[C@@H]2CCCN(CCc3ccc(Cl)c(Cl)c3)C2)CC1 [Example 253, 4-[[(3R)-1-[2-(3,4-dichlorophenyl)ethyl]-3-piperidyl]methyl]-N-phenyl piperazine-1-carboxamide]
10 | < 10 | CS(=O)(=O)c1ccc(CCCN2CCC[C@@H](CN3CCN(C(=O)Nc4ccccc4)CC3)C2)cc1 [Example 254, 4-[[(3R)-1-[3-(4-methylsulfonylphenyl)propyl]-3-piperidyl]methyl]-N-phenyl-piperazine-1-carboxamide]
11 | < 10 | O=C(Nc1ccc(Cl)c(Cl)c1)N1CCN(C[C@@H]2CCCN(Cc3ccc(N4CCOCC4)nc3)C2)CC1 [Example 255, N-(3,4-dichlorophenyl)-4-[[(3R)-1-[(6-morpholin-4-ylpyridin-3-yl)methyl]-3-piperidyl]methyl]piperazine-1-carboxamide]
12 | < 10 | O=C(Nc1ccc(Cl)c(Cl)c1)N1CCN(C[C@@H]2CCCN(Cc3ccc(Cl)nc3)C2)CC1 [Example 256, 4-({(3R)-1-[(6-chloropyridin-3-yl)methyl]piperidin-3-yl}methyl)-N-(3,4-dichlorophenyl)piperazine-1-carboxamide]
13 | < 10 | O=C(Nc1ccc(Cl)c(Cl)c1)N1CCN(C[C@@H]2CCCN(Cc3ccc(O)nc3)C2)CC1 [Example 257, N-(3,4-dichlorophenyl)-4-({(3R)-1-[(6-hydroxypyridin-3-yl)methyl]piperidin-3-yl}methyl)piperazine-1-carboxamide]
14 | < 10 | COCCOc1ccc(CN2CCC[C@@H](CN3CCN(C(=O)Nc4ccc(Cl)c(Cl)c4)CC3)C2)cn1 [Example 258, N-(3,4-dichlorophenyl)-4-[((3R)-1-{[6-(2-methoxyethoxy)pyridin-3-yl]methyl}piperidin-3-yl)methyl]piperazine-1-carboxamide]
15 | < 10 | CC(C)N1CCN[C@@H](C(=O)N2CCN(C(=O)Nc3cccc(Oc4ccccc4)c3)CC2)C1 [Example 260, 4-{[(2R)-4-Isopropylpiperazin-2-yl]carbonyl}-N-(3-phenoxyphenyl) piperazine-1-carboxamide]
16 | < 10 | CC(C)N1CCN[C@@H](C(=O)N2CCN(C(=O)Nc3ncc(Cl)s3)CC2)C1 [Example 264, N-(5-Chloro-1,3-thiazol-2-yl)-4-{[(2R)-4-isopropylpiperazin-2-yl]carbonyl}piperazine-1-carboxamide]
17 | < 10 | CC(C)N1CCN[C@@H](C(=O)N2CCN(C(=O)Nc3ccc(Cl)c(F)c3)CC2)C1 [Example 265, N-(4-Chloro-3-fluorophenyl)-4-{[(2R)-4-isopropylpiperazin-2-yl]carbonyl}piperazine-1-carboxamide]

Row | IC50 [µM] | SMILES
18 | < 10 | Nc1ncccc1CN1CCCC(CN2CCN(C(=O)Nc3ccc(F)c(Cl)c3)CC2)C1 (stereo not shown) [Example 266, 4-({1-[(2-aminopyridin-3-yl)methyl]piperidin-3-yl}methyl)-N-(3-chloro-4-fluorophenyl)piperazine-1-carboxamide]
19 | < 10 | O=C(Nc1ccc(Cl)c(Cl)c1)N1CCN(C(=O)[C@H]2CN(CC3CC3)CCN2)CC1 [Example 268, 4-{[(2R)-4-(cyclopropylmethyl)piperazin-2-yl]carbonyl}-N-(3,4-dichlorophenyl)piperazine-1-carboxamide]
20 | < 10 | CC(CC(C)(C)O)N1CCN[C@@H](C(=O)N2CCN(C(=O)Nc3ccc(Cl)c(Cl)c3)CC2)C1 (stereo partly drawn) [Example 269, N-(3,4-dichlorophenyl)-4-{[(2R)-4-(3-hydroxy-1,3-dimethylbutyl)piperazin-2-yl]carbonyl}piperazine-1-carboxamide]
21 | < 10 | CCCC(C)N1CCN[C@@H](C(=O)N2CCN(C(=O)Nc3ccc(Cl)c(Cl)c3)CC2)C1 (stereo partly drawn) [Example 270, N-(3,4-dichlorophenyl)-4-{[(2R)-4-(1-methylbutyl)piperazin-2-yl]carbonyl}piperazine-1-carboxamide]
22 | < 10 | O=C(Nc1ccc(Cl)c(Cl)c1)N1CCN(C(=O)[C@H]2CN(CC3CCOC3)CCN2)CC1 (stereo partly drawn) [Example 271, N-(3,4-dichlorophenyl)-4-{[(2R)-4-(tetrahydrofuran-3-ylmethyl)piperazin-2-yl]carbonyl}piperazine-1-carboxamide]
23 | < 10 | O=C(Nc1ccc(Cl)c(Cl)c1)N1CCN(C(=O)[C@H]2CN(CCCc3ncc(F)cn3)CCN2)CC1 [Example 273, N-(3,4-dichlorophenyl)-4-({(2R)-4-[3-(5-fluoropyrimidin-2-yl)propyl]piperazin-2-yl}carbonyl)piperazine-1-carboxamide]
24 | < 10 | O=C(Nc1ccc(Cl)c(Cl)c1)N1CCN(C(=O)[C@H]2CN(C3CCC3)CCN2)CC1 [Example 275, 4-{[(2R)-4-Cyclobutylpiperazin-2-yl]carbonyl}-N-(3,4-dichlorophenyl)piperazine-1-carboxamide]
25 | < 10 | O=C(Nc1ccc(Cl)c(Cl)c1)N1CCN(C(=O)[C@H]2CN(C3CCCC3)CCN2)CC1 [Example 276, 4-{[(2R)-4-Cyclopentylpiperazin-2-yl]carbonyl}-N-(3,4-dichlorophenyl)piperazine-1-carboxamide]
26 | < 10 | O=C(Nc1ccc(Cl)c(Cl)c1)N1CCN(C(=O)[C@H]2CN(C3CCCCC3)CCN2)CC1 [Example 277, 4-{[(2R)-4-Cyclohexylpiperazin-2-yl]carbonyl}-N-(3,4-dichlorophenyl)piperazine-1-carboxamide]
27 | < 10 | O=C(Nc1ccc(Cl)c(Cl)c1)N1CCN(C(=O)[C@H]2CN(C3CCC(O)(c4ccccn4)CC3)CCN2)CC1 (stereo partly drawn) [Example 279, N-(3,4-Dichlorophenyl)-4-{[(2R)-4-(4-hydroxy-4-pyridin-2-ylcyclohexyl)piperazin-2-yl]carbonyl}piperazine-1-carboxamide]
28 | < 10 | O=C(Nc1ccc(Cl)c(Cl)c1)N1CCN(C(=O)[C@H]2CN(C3CCSCC3)CCN2)CC1 [Example 280, N-(3,4-Dichlorophenyl)-4-{[(2R)-4-(tetrahydro-2H-thiopyran-4-yl)piperazin-2-yl]carbonyl}piperazine-1-carboxamide]
29 | < 10 | CC(C1CC1)N1CCN[C@@H](C(=O)N2CCN(C(=O)Nc3ccc(Cl)c(Cl)c3)CC2)C1 (stereo partly drawn) [Example 281, 4-{[(2R)-4-(1-Cyclopropylethyl)piperazin-2-yl]carbonyl}-N-(3,4-dichlorophenyl)piperazine-1-carboxamide]
30 | < 10 | CC(C)N1CCN[C@@H](C(=O)N2CCN(C(=O)Nc3cc(Cl)cc(Cl)c3)CC2)C1 [Example 287, N-(3,5-Dichlorophenyl)-4-{[(2R)-4-isopropylpiperazin-2-yl]carbonyl}piperazine-1-carboxamide]
31 | < 10 | CC(C)N1CCN[C@@H](C(=O)N2CCN(C(=O)Nc3cc(F)cc(C(F)(F)F)c3)CC2)C1 [Example 288, N-[3-Fluoro-5-(trifluoromethyl)phenyl]-4-{[(2R)-4-isopropylpiperazin-2-yl]carbonyl}piperazine-1-carboxamide]
32 | < 10 | CC(C)N1CCN[C@@H](C(=O)N2CCN(C(=O)Nc3nc(C(F)(F)F)cs3)CC2)C1 [Example 290, 4-{[(2R)-4-Isopropylpiperazin-2-yl]carbonyl}-N-[4-(trifluoromethyl)-1,3-thiazol-2-yl]piperazine-1-carboxamide]
33 | < 10 | CC(C)N1CCN[C@@H](C(=O)N2CCN(C(=O)Nc3ccc(C#N)c(C(F)(F)F)c3)CC2)C1 [Example 292, N-[4-Cyano-3-(trifluoromethyl)phenyl]-4-{[(2R)-4-isopropylpiperazin-2-yl]carbonyl}piperazine-1-carboxamide]
34 | < 10 | C=CCN1CCN[C@@H](C(=O)N2CCN(C(=O)Nc3ccc(Cl)c(Cl)c3)CC2)C1 [Example 303, N-(3,4-dichlorophenyl)-4-{[(2R)-4-(prop-2-en-1-yl)piperazin-2-yl]carbonyl}piperazine-1-carboxamide]
